# In patent US5714469A, “Method of treating sepsis” (priority 1994, dated 1998):
# System: clinical isolate of E. coli isolated from sputum
# Test: Antibiotic sensitivity by disc-agar diffusion technique
# Format: cell-based
# Description: A clinical isolate of E. coli isolated from sputum was utilized. […] The organism was animal passed in mice and subsequently recovered and plated onto MacConkey's agar. The reisolated organisms were grown overnight in brain-heart infusion broth, and then stored frozen at -70° C. The inoculate the fibrin clot, organisms from thawed stocks were inoculated into brainheart infusion broth and incubated overnight on a rotary shaker (120 rpm) an 37° C. The E. coli was harvested by centrifugation, washed 3X and finally resuspended in normal saline. The number or organisms was quantified by turbidimentry, and the concentration adjusted with normal saline. All inoculum sizes were based on viable counts determined by scoring colony forming units on MacConkeys agar.
row,Compound,antibiotic sensitivity of the E. coli isolate
1,CC(=O)OCC1=C(C(=O)O)N2C(=O)[C@@H](NC(=O)Cc3cccs3)[C@H]2SC1 [cephalothin],sensitive
2,CC1(C)S[C@@H]2[C@H](NC(=O)[C@H](N)c3ccccc3)C(=O)N2[C@H]1C(=O)O [ampicillin],sensitive
3,CN(C)[C@@H]1C(O)=C(C(N)=O)C(=O)[C@@]2(O)C(O)=C3C(=O)c4c(O)cccc4[C@@](C)(O)[C@H]3C[C@@H]12 [tetracycline],sensitive
4,CC1(C)S[C@@H]2[C@H](NC(=O)Cc3ccccc3)C(=O)N2[C@H]1C(=O)O [penicillin G],resistant
5,CC[C@H]1OC(=O)[C@H](C)[C@@H](O[C@H]2C[C@@](C)(OC)[C@@H](O)[C@H](C)O2)[C@H](C)[C@@H](O[C@@H]2O[C@H](C)C[C@H](N(C)C)[C@H]2O)[C@](C)(O)C[C@@H](C)C(=O)[C@H](C)[C@@H](O)[C@]1(C)O [erythromycin],resistant
6,NC[C@H]1O[C@H](O[C@H]2[C@H](O)[C@@H](O[C@H]3O[C@H](CO)[C@@H](O)[C@H](N)[C@H]3O)[C@H](N)C[C@@H]2N)[C@H](O)[C@@H](O)[C@@H]1O [kanamycin],sensitive
7,CN[C@H](CC(C)C)C(=O)N[C@H]1C(=O)N[C@@H](CC(N)=O)C(=O)N[C@H]2C(=O)N[C@H]3C(=O)N[C@H](C(=O)N[C@H](C(=O)O)c4cc(O)cc(O)c4-c4cc3ccc4O)[C@H](O)c3ccc(c(Cl)c3)Oc3cc2cc(c3O[C@@H]2O[C@H](CO)[C@@H](O)[C@H](O)[C@H]2O[C@H]2C[C@](C)(N)[C@H](O)[C@H](C)O2)Oc2ccc(cc2Cl)[C@H]1O [vancomycin],resistant
8,gentamicin,sensitive
9,trimethoprin/sulfamethoxazole,sensitive
10,O=C(N[C@H](CO)[C@H](O)c1ccc([N+](=O)[O-])cc1)C(Cl)Cl [chloramphenicol],sensitive
